Columns and labels:
NTPDase1 = target: NTPDase1; design: method as in Lecka et al., 2013; details: ref Lecka et al., 2013; cited from earlier work
human NTPDase8 [1] = target: T1, human NTPDase8 (Homo sapiens, UniProt Q5MY95); design: method as in Lévesque et al., 2007; details: ref Lévesque et al., 2007; cited from earlier work
T1 construct: expressed in transfected cells; host or cells: COS-7 cells (membrane preparation)
T1 sequence (Q5MY95 1-495): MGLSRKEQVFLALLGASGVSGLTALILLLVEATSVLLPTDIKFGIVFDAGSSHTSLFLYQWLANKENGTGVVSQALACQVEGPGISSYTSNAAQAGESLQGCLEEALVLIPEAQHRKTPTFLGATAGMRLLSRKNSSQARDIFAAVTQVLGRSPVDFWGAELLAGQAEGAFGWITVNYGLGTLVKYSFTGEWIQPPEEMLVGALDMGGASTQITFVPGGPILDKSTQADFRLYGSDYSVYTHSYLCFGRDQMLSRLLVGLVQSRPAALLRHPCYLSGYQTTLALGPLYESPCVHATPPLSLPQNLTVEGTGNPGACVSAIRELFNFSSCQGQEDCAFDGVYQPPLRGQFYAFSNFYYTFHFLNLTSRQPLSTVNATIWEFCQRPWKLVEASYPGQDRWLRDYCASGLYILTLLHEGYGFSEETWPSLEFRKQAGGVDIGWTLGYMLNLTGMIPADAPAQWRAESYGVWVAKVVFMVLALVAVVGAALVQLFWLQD

human NTPDase2 [2] = target: T2, human NTPDase2 (Homo sapiens, UniProt Q9Y5L3); details: ref Lévesque et al., 2007; cited from earlier work
T2 construct: expressed in transfected cells; host or cells: COS-7 cells (membrane preparation)
T2 sequence (Q9Y5L3 1-495): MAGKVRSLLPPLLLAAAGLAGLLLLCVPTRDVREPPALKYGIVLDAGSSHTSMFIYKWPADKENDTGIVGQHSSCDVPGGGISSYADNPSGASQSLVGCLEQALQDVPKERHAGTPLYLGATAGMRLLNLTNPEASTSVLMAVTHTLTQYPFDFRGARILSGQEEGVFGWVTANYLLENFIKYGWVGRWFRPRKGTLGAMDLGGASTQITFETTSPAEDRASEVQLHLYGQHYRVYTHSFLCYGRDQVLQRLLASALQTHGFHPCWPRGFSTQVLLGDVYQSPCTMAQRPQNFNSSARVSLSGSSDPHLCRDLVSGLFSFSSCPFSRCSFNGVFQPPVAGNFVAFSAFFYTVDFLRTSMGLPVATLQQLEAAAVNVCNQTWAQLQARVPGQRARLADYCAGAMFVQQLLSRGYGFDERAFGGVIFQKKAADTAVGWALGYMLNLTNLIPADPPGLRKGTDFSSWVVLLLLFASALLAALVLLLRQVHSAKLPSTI

rat NTPDase3 = details: cited from earlier work; for IC50: rat enzyme, ref Baqi et al., 2009b
human NTPDase1 = target: T3, human NTPDase1 (Homo sapiens, UniProt P49961); assay: Malachite green assay, human NTPDase1; type: biochemical; details: 2 μM compound; 50 µM ATP; COS-7 membrane preparation; read-out: % inhibition at 2 μM concentration, NTPDase1
T3 construct: expressed in transfected cells; host or cells: COS-7 cells (membrane preparation)
T3 sequence (P49961 1-510): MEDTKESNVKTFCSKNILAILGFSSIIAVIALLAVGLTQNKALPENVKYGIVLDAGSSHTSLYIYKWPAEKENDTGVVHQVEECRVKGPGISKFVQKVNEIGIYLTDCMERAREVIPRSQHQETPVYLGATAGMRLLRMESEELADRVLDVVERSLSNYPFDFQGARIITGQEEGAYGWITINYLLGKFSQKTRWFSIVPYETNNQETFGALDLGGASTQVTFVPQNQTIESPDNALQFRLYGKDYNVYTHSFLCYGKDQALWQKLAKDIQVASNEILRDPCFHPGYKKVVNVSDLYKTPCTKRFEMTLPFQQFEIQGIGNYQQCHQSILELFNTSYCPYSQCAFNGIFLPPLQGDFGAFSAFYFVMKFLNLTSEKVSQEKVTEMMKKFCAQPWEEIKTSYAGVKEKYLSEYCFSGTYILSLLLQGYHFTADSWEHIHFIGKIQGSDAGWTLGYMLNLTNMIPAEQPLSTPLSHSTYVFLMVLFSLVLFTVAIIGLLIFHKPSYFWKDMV
Summary of the method: (§1)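 COS-7 membranes expressing each NTPDase were preincubated with compound for 5 min at 37 °C, pH 7.4 HEPES buffer with 2 mM CaCl2/1 mM MgCl2. ATP was 50 µM for NTPDase1 and 100 µM for -2, -3, -8; reaction ran 15 min at 37 °C. Released phosphate read by malachite green at 600 nm; screen at 2 µM, IC50 over 0.03–30 µM in 2% DMSO.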

human NTPDase8 [3] = target: T1, human NTPDase8; assay: Malachite green assay, human NTPDase8; type: biochemical; details: 2 μM compound; 100 µM ATP; COS-7 membrane preparation; read-out: % inhibition at 2 μM concentration, NTPDase8
Summary of the method: as §1

rat NTPDase2 = details: cited from earlier work; for IC50: rat enzyme, ref Baqi et al., 2009b
human NTPDase2 [4] = target: T2, human NTPDase2; assay: Malachite green assay, human NTPDase2; type: biochemical; details: for inhibition at 2 µM: 2 μM compound, read-out: % inhibition at 2 μM concentration, NTPDase2; for inhibition at 2 µM / IC50: 100 µM ATP, COS-7 membrane preparation; for IC50: read-out: IC50 ± SEM, NTPDase2
Summary of the method: as §1

human NTPDase3 = target: T4, human NTPDase3 (Homo sapiens, UniProt O75355); assay: Malachite green assay, human NTPDase3; type: biochemical; details: 2 μM compound; 100 µM ATP; COS-7 membrane preparation; read-out: % inhibition at 2 μM concentration, NTPDase3
T4 construct: expressed in transfected cells; host or cells: COS-7 cells (membrane preparation)
T4 sequence (O75355 1-529): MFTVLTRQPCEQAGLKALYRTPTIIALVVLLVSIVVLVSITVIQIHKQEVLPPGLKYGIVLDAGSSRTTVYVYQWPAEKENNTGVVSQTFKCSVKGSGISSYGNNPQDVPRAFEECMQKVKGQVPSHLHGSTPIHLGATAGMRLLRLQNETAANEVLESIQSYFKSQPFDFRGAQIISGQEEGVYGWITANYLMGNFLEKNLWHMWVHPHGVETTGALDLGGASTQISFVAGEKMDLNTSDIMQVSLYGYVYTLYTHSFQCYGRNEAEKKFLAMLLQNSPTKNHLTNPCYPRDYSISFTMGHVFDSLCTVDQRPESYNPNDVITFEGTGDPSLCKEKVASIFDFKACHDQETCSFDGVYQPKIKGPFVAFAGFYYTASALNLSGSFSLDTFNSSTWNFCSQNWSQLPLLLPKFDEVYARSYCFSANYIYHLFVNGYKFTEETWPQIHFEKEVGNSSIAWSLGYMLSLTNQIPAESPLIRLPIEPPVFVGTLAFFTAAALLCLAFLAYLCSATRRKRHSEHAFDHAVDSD
Summary of the method: as §1

rat NTPDase1 = details: cited from earlier work; for IC50: rat enzyme, ref Baqi et al., 2009b
rat CD73 = tested on: rat CD73; design: method as in Baqi et al., 2010; details: 1 mM concentration; ref Baqi et al., 2010; cited from earlier work

Row | Molecule | inhibition at 2 µM (human NTPDase1) [%] | inhibition at 2 µM (human NTPDase8 [3]) [%] | inhibition at 2 µM (human NTPDase2 [4]) [%] | inhibition at 2 µM (human NTPDase3) [%] | melting point [°C] | further results
1 | CCCCSc1nc2c(N)ncnc2n1[C@@H]1O[C@H](COP(=O)(O)OP(=O)(O)OP(=O)(O)O)[C@@H](O)[C@H]1O [8-BuS-ATP] |  |  |  |  |  | Ki (NTPDase1): 800 nM
2 | CCN(CC)c1ncnc2c1ncn2[C@@H]1O[C@H](COP(=O)(O)OP(=O)(O)C(Br)(Br)P(=O)(O)O)[C@@H](O)[C@H]1O [ARL67156] |  |  |  |  |  | inhibition of human NTPDase8 (in words) (human NTPDase8 [1]): does not inhibit; inhibition of human NTPDase2 (in words) (human NTPDase2 [2]): does not inhibit
3 | Cc1cccc(Nc2cc(S(=O)(=O)O)c(N)c3c2C(=O)c2ccccc2C3=O)c1 [Compound 6, reference compound] | -4 | -21 | 22 | 1 |  | IC50 (rat NTPDase3): 19100 nM; IC50 (rat NTPDase2): 12800 nM; IC50 (rat NTPDase1): 51500 nM
4 | Nc1c(S(=O)(=O)O)cc(Nc2ccc3ccccc3c2)c2c1C(=O)c1ccccc1C2=O [Compound 18] | -8 | 3 | 34 | -9 |  | IC50 (rat NTPDase3): 2220 nM; IC50 (rat NTPDase2): 19100 nM; IC50 (rat NTPDase1): 328 nM
5 | Nc1c(S(=O)(=O)O)cc(Nc2cc3ccccc3c3ccccc23)c2c1C(=O)c1ccccc1C2=O [Compound 20, 1-amino-4-(9-phenanthrylamino)-9,10-dioxo-9,10-dihydroanthracene-2-sulfonate] | -7 | 6 |  | -5 |  | IC50 (human NTPDase2 [4]): 539 ± 290 nM; inhibition type, NTPDase2 (human NTPDase2 [4]; Hanes-Woolf plot, 25-200 µM ATP, inhibitor 0, 0.25, 0.5, 1 µM): non-competitive; % inhibition of CD73 at 1 mM concentration (rat CD73): 58%
6 | COc1ccc(Sc2ccc(Nc3cc(S(=O)(=O)[O-])c(N)c4c3C(=O)c3ccccc3C4=O)cc2)cc1.[Na+] [Compound 47, Sodium 1-amino-4-[4-(4-methoxyphenylthio)phenylamino]-9,10-dioxo-9,10-dihydroanthracene-2-sulfonate] | 34 | 4 |  | 16 | > 300 | IC50 (human NTPDase2 [4]): 951 ± 225 nM
7 | CCc1cccc(Nc2cc(Br)c(N)c3c2C(=O)c2ccccc2C3=O)c1 [Compound 53, 1-Amino-2-bromo-4-(3-ethylphenylamino)anthracene-9,10-dione] | -4 | -4 | 5 | -2 | 229 to 230 | 
8 | O=C1c2ccccc2C(=O)c2c(Nc3cccc(F)c3)cc(S(=O)(=O)O)cc21 [Compound 57, 4-(3-Fluorophenylamino)-9,10-dioxo-9,10-dihydroanthracene-2-sulfonic acid] | 14 | -1 | -6 | 9 | > 300 | 
9 | [TiW11CoO40]^8- [Compound 9, reference compound] |  |  |  |  |  | inhibition of rat NTPDase3 (concentration range in words) (rat NTPDase3; ref Müller et al., 2006): submicromolar concentration range; inhibition of rat NTPDase2 (concentration range in words) (rat NTPDase2; ref Müller et al., 2006): submicromolar concentration range; inhibition of rat NTPDase1 (concentration range in words) (rat NTPDase1; ref Müller et al., 2006): submicromolar concentration range
